# Measurements from ChEMBL document CHEMBL5230131, “Modern trends in diuretics development” (Eur J Med Chem, 2020).
# Columns and labels:
# [1] = molecular target: T1, Pendrin (Mus musculus, UniProt Q9R155); experiment: Inhibition of mouse Pendrin stably expressed in FRT cells with YFP assessed as inhibition of pendrin mediated Cl-/SCN- exchange by fluorescence assay; format: cell-based
# T1 sequence (Q9R155 whole entry): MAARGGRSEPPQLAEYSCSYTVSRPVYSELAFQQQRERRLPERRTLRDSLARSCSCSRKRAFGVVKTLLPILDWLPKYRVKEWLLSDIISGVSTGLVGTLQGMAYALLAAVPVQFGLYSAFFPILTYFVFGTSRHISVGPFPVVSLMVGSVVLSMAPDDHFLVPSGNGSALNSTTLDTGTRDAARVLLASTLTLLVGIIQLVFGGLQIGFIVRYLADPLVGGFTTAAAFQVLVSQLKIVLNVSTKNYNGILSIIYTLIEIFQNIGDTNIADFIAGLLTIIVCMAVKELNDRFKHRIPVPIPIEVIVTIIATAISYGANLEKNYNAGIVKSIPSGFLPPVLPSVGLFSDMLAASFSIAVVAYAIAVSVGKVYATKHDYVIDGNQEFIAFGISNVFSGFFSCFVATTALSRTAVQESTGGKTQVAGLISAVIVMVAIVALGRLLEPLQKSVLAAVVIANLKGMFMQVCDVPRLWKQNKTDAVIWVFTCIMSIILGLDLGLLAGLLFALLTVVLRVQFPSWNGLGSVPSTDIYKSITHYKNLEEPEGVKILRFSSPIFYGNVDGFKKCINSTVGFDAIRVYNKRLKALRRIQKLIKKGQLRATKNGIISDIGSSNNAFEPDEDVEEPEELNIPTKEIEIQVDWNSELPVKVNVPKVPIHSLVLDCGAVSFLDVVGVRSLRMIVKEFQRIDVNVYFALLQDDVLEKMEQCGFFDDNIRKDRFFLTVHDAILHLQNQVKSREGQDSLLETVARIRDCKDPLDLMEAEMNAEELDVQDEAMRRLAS
# [2] = molecular target: T1, Pendrin; experiment: Inhibition of mouse Pendrin stably expressed in FRT cells with YFP assessed as inhibition of pendrin mediated Cl-/NO3- exchange by fluorescence assay; format: cell-based
# [3] = molecular target: T1, Pendrin; experiment: Inhibition of mouse Pendrin stably expressed in FRT cells with YFP assessed as inhibition of pendrin mediated Cl-/HCO3- exchange by fluorescence assay; format: cell-based
# [4] = system: Mus musculus; experiment: Diuretic activity in CD-1 mouse assessed as increase in urine volume at 10 to 50 mg/kg,ip with short term administration of furosemide measured after 3 hrs; format: functional; conditions: dose 10-50 mg/kg
# [5] = system: Mus musculus; experiment: Diuretic activity in C57BL/6 mouse assessed as increase in urine volume at 10 to 50 mg/kg,ip with short term administration of furosemide measured after 3 hrs; format: functional; conditions: dose 10-50 mg/kg
# [6] = system: Mus musculus; experiment: Diuretic activity in CD-1 mouse assessed as increase in urine volume at 20 mg/kg,ip with long term administration of furosemide measured after 3 hrs; format: functional
# [7] = system: Mus musculus; experiment: Diuretic activity in C57BL/6 mouse assessed as increase in urine volume at 20 mg/kg,ip with long term administration of furosemide measured after 3 hrs; format: functional
# [8] = molecular target: T2, Aquaporin-1 (Homo sapiens, UniProt P29972); experiment: Agonist activity at human AQP1 water channel expressed in Xenopus laevis oocytes assessed as inhibition of AQP1-mediated osmotic swelling; format: cell-based, Oocyte
# T2 sequence (P29972 whole entry): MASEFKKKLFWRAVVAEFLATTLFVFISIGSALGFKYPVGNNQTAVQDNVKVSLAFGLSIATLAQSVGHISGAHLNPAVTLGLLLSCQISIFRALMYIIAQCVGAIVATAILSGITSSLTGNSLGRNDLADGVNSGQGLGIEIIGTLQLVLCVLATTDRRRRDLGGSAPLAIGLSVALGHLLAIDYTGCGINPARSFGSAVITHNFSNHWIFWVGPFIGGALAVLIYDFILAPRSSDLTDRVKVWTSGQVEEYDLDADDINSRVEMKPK
IC50 [1],IC50 [2],IC50 [3],EC50 [8],Structure (SMILES),Activity [4],Activity [5],Activity [6],Activity [7]
9 µM,5 µM,10 µM,,Cc1n[nH]c(-c2cc(S(=O)(=O)NC3CCCc4ccccc43)c(C)s2)c1C (stereo not drawn),30%,30%,60%,60%
,,,3.3 µM,COC(=O)c1cc(S(=O)(=O)NCc2ccccc2)c(Cl)cc1NCc1ccco1,,,,
